Experimental data from US12582618B2, “Bis-biguanide compounds, pharmaceutical compositions and uses in managing cancer” (Emory University, priority 2019, dated 2026).

Test system: leader cell sub-population (H1299 leader cells)
Experiment: drug screening of rare lung cancer cells isolated by spatiotemporal genomic and cellular analysis (SaGA)
Type: cell-based, human
Conditions: rare lung cancer cells identified by SaGA, then drug screening; see FIG. 2A
Excerpt: See e.g., Burrell et al., Nature, 2013, 501:338-345. Spatiotemporal genomic and cellular analysis (SaGA) is a technique which involves a combination of microscopy and genomics to isolate rare cells. See Konen et al. Nat Comm, 2017, 8:15078. Dendra2 is a photoconvertible fluorophore which emits green fluorescence. However, when excited by 405 nm light, green fluorescence is converted to red fluorescence due to cleavage of a histidine. Therefore, with single cell precision, any cancer cell expressing Dendra2 can be optically highlighted (turned red) using a point scanning confocal microscope. A region of interest is drawn around the cell(s) of interest, based upon by transmitted light or fluorescent protein tags. This region can be exposed to a 405 nm laser, resulting in near instantaneous photoconversion of Dendra2, and photomarking the cell red. Single cells can be photoconverted, without inducing any measurable photoconversion of neighboring cells. Cells are extracted from the 3-D environment using dispase for 15 minutes (collagenase for collagen). Cells are then sorted to separate red photoconverted cells from green cells using a FACS. Isolated cells are grown in culture using standard cell culture techniques. Spatiotemporal genomic and cellular analysis (SaGA) was used to identify rare lung cancer cells which were then subject to drug screening.

CCCCC(CC)CNC(=N)NC(=N)NCCCCCCNC(=N)NC(=N)NCC(CC)CCCC (stereo not shown) [alexidine, 1,1′-(hexane-1,6-diyl)bis(5-(2-ethylhexyl)biguanidine)]
effect on metastasis / invasive cell pack: disrupt metastasis by targeting a rare cell type within the invasive cell pack
